Test results reported in ChEMBL document CHEMBL3886147 (2015).
“And” between values parts separate entries of the source, which are not always exact repeats. Equal entries are not always repeated.

Columns and labels:
[1] = target: Beta-lactamase (Escherichia coli K-12, UniProt P00811); assay: (§1) Assays are performed with beta -lactamases expressed in the pET system (Novagen, San Diego, Calif.) without signal peptides. They contain an N-terminal hexa-Histidine tag that is used for purification on Ni-NTA (Qiagen, Hilden, Germany). The compounds are prepared as 50 mM stocks in DMSO and diluted into buffer P1 (50 mM phosphate, pH 7) to a final concentration of 10% DMSO. All further dilutions are done in P2 (P1 with 10% DMSO). Enzyme and compound dilutions are pre-incubated for 10 min at 37 C. and the reaction is started with the addition of pre-warmed (37 C.) nitrocefin at a final concentration of […]. The change in absorption at 490 nm is followed at 37 C. for 10 min with 30 s intervals.
Chain of Beta-lactamase (P00811 whole entry): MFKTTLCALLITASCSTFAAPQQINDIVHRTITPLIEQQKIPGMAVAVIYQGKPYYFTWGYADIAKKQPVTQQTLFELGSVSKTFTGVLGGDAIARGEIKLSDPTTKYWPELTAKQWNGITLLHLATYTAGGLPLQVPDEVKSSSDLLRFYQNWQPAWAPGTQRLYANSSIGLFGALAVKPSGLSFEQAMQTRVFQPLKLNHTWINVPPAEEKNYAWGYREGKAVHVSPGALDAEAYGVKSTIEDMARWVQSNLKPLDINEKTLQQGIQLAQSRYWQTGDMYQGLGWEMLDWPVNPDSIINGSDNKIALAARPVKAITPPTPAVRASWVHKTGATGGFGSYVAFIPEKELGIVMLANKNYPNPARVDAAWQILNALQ

[2] = target: Beta-lactamase TEM (Bacteria, UniProt P62593); assay: as §1
Chain of Beta-lactamase TEM (P62593 whole entry): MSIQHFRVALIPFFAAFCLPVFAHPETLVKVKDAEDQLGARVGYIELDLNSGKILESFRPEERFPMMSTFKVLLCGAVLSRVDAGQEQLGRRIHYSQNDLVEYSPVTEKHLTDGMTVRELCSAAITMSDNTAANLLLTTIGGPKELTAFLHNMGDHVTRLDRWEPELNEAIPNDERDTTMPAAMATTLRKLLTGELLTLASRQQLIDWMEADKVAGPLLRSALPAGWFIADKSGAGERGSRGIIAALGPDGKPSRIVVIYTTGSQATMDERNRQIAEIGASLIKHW

| Compound | IC50 [1] | IC50 [2] |
| --- | --- | --- |
| [N-]=[N+]=NCC1C/C(=C2\O[C@@H]3CC(=O)N3C2C(=O)OCc2ccccc2)C(=O)O1 (stereo not given in full) | 0.305 µM |  |
| COC(=O)C1/C(=C2/CC(CI)OC2=O)O[C@@H]2CC(=O)N12 (stereo not given in full) | 0.126 µM | 0.0035 µM |
| CC1CC(=C2O[C@@H]3CC(=O)N3C2C(=O)O)C(=O)O1 (single isomer, unassigned) | 6.08 µM |  |
| CC1C/C(=C2\O[C@@H]3CC(=O)N3C2C(=O)OCc2ccccc2)C(=O)O1 (single isomer, unassigned) | 1.07 µM and 0.301 µM |  |
